Measured values: US5231091A, “Bis-arylphosphate ester antagonists of platelet activating factor” (priority 1992, dated 1993)
Structures can show the parent of a compound that is named as a salt.

Legend:
PAF receptor [1] = biological target: T1, PAF receptor (Homo sapiens, UniProt P25105); test: Inhibition of PAF-induced aggregation in human platelet rich plasma; type: cell-based; details: PAF challenge 1E-6M, number of experiments in parentheses
T1 construct: Blood from healthy volunteers was collected; endogenous in cells; host or cells: human platelets (healthy volunteers)
Description: (§1) Test compounds were evaluated as PAF receptor antagonists in vitro by measuring inhibition of PAF (platelet activating factor) induced platelet aggregation. Platelet aggregation was measured by a modification of the method described in A. Wissner, et. al., J. Med. Chem., 27, 1174, 1984.
(§2) L-PAF was obtained from Calbiochem. A stock solution of 1-2 E-3M was prepared in 10% ethanol in water or 100% methanol and serial working dilutions were made using phosphate buffered saline (PBS). 1-2 E-3M stock solutions of test compounds were prepared in 100% methanol and serially diluted in PBS. All solutions were made up in plastic tubes, stored on ice and protected from heat and light. Solutions were prepared fresh or frozen at -20° C. and used within 48 hours.
(§3) Incubation mixtures consisted of 400 μl PRP, 50 μl of PBS diluent or test compound and 50 μl of PAF agonist. More specifically, 400 μl of PRP was stabilized in a cuvette for 1-2 minutes at 37° C. in the aggregometer to achieve a stable baseline, then 50 μl of PBS or test compound, was added and incubated for 5 minutes before addition of the challenge concentration of PAF (final concentration of 5E-8M or 1E-7M, as determined from the dose response curve for PAF for that experiment). Aggregation was monitored for 5 minutes. Samples containing test compound or diluent were run simultaneously for comparison. Test compounds were initially evaluated at a screening concentration of 1E-5M.
(§4) The recording equipment consisted of a dual channel Chronolog aggregometer connected to a dual channel 10 MV full scale deflection Omniscribe chart recorder (Houston Instruments). […] The bead suspension was used to set the 0% light transmission mark and clear water was used to set the 100% light transmission mark. These limits defined a full scale deflection. The aggregation traces were analyzed by a digitizing method (C. Kohler and B. Zoltan, J. Pharm. Methods, 12, 113, 1984) with x, y coordinate data stored in a computer file. A suitable program computed parameters of interest such as the magnitude of aggregation.
In some experiments, human PRP was used instead of rabbit PRP. Blood from healthy volunteers was collected in Vacutainers® containing the Na citrate diluent and processed in a manner similar to rabbit blood to obtain the PRP. For these experiments, the challenge concentration of PAF was 1E-6M.

PAF receptor [2] = biological target: T2, PAF receptor (Oryctolagus cuniculus, UniProt G1TEI7); test: Inhibition of PAF-induced aggregation in rabbit platelet rich plasma; type: cell-based, rabbit (male New Zealand White); details: rabbit platelet rich plasma; PAF challenge 5E-8M; number of experiments in parentheses; read-out: IC50 inhibition of PAF-induced aggregation
T2 construct: endogenous in cells; host or cells: rabbit platelets (male New Zealand White)
Description: as §1
Approximately 120-240 ml of blood were collected by cardiac puncture from unanesthetized male New Zealand White rabbits (Whaley's Summit View Farms, Belvedere, N.J.) with the use of 3.2% sodium citrate anticoagulant (1 part of citrate/10 parts of blood). All syringes and pipets were plastic. The blood was gently mixed and immediately centrifuged at 800 rpm for 10-15 minutes at room temperature to recover the platelet rich plasma (PRP). Platelet poor plasma (PPP) was prepared by centrifuging PRP at 2800 rpm for 10 minutes at room temperature.
Dilutions (1:3000) of PRP in Isoton® diluent were made and platelet counts were determined on a Coulter Thrombocounter which was standardized with platelet reference standards (Interscience Platelet Control, Portland, Oreg.). PRP platelet counts were adjusted to approximately 400,000-500,000 platelets/μl by the addition of PPP.
as §2, §3, §4

LPS induced hypotension = test: Endotoxin (LPS) induced hypotension in rats; type: in vivo, rat (male Wistar); details: anesthetized rats; 10 ug/kg intraarterially 5 minutes after LPS 15 mg/kg I.V.
Description: Bacterial cell wall lipopolysaccharide from E. coli strain 0111:B4 (Sigma #L-2630) was dissolved in saline at a concentration of 3.75 mg/ml and administered to rats at 15 mg/kg I.V. Test compounds were dissolved in saline at 1 mg/ml, diluted to 10 ug/ml, and injected intraarterially at 1 ml/kg (10 ug/kg). Male wistar strain rats were obtained from Charles River Labs and maintained according to ALAC standards. They were anesthetized with 30 mg/kg pentobarbital ip with supplementation as needed. The throat was opened, the left carotid artery was cannulated with PE-10 tubing and the trachea cannulated with 0.100 O.D. tubing. Ventilation was maintained by a Harvard Apparatus small animal pump at a rate sufficient to nearly abolish spontaneous respiration.

[3] = system: endotoxin induced mortality; test: Endotoxin induced shock and mortality in mice; type: in vivo, mouse (male Balb/c)
Excerpt: The test compounds (PAF antagonists) were also efficacious when administered iv prior to a lethal iv injection of endotoxin (Table IX).

PAF induced lethality = PAF induced lethality in mice; type: in vivo; details: corrected for control lethality
Description: PAF given I.V. to mice causes an immediate hypotensive shock leading to death in 1 hour or less. Compounds were given intraperitoneally or P.O. at various times before the PAF challenge. Animals alive after 2 hours were counted and the activity of test compounds expressed as % survival corrected for any control (saline treated) animals which survived the PAF challenge.

PAF induced skin lesions = test: Guinea pig vascular permeability (skin lesion) model; type: in vivo, guinea pig (Hartley)
PAF receptor [4] = biological target: T2, PAF receptor; test: Inhibition of PAF-induced aggregation in washed rabbit platelets; type: cell-based; details: PAF challenge 5E-9M, number of experiments in parentheses
Description: as §1, §2
as §3, with “More” for “Incubation mixtures consisted of 400 μl PRP, 50 μl of PBS diluent or test compound and 50 μl of PAF agonist. More”, “400 μl of PRP was stabilized in a cuvette” left out, “1E-5M. […]” for “1E-5M.”

[5] = 10 mg/kg IP 2 hours prior to IP endotoxin
[6] = footnote c: I.P. 4 mg/kg 1 hour before PAF

T1 sequence (P25105 whole entry): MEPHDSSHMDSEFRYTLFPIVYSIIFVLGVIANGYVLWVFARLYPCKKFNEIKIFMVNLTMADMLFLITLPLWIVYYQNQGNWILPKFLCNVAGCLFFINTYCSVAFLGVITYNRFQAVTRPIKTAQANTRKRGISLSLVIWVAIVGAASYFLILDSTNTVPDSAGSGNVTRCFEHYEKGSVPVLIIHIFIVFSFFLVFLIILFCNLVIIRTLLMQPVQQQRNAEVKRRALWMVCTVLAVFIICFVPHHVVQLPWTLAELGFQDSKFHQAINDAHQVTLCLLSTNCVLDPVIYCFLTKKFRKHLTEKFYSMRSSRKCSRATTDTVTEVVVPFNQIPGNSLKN
T2 sequence (G1TEI7 1-342): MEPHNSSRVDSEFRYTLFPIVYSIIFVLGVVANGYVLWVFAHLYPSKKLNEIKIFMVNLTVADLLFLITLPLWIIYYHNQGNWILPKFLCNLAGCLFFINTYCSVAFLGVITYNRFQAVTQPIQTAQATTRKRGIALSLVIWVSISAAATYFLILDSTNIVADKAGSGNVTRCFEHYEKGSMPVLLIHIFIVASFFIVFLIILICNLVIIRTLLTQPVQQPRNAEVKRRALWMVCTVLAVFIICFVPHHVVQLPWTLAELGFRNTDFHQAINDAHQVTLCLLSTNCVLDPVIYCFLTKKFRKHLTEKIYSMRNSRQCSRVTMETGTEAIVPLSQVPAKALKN

Compound `CCCCCCCCCCCCCCCCOc1cccc(OP(=O)([O-])Oc2cccc(C[n+]3ccsc3)c2)c1` [3-[[3-[[[3-(Hexadecyloxy)phenoxy]hydroxyphosphinyl]-oxy]phenyl]methyl]-thiazolium, hydroxide, inner salt] has an IC50 (PAF receptor [1]) of 2500 nM and an IC50 (PAF receptor [2]) of 2130 nM.
Work on `CCCCCCCCCCCCCCCCOc1cccc(OP(=O)([O-])Oc2cccc(C[n+]3ccsc3)c2)c1C` [3-[[3-[[[3-(Hexadecyloxy)-2-methylphenoxy]hydroxyphosphinyl]oxy]phenyl]methyl]-thiazolium, hydroxide, inner salt] yielded an IC50 (PAF receptor [1]) of 119 nM and an IC50 (PAF receptor [2]) of 2650 nM.
In the case of `CCCCCCCCCCCCCCOc1cccc(OP(=O)([O-])Oc2cccc(C[n+]3ccsc3)c2)c1OC` [3-[[3-[[Hydroxy]2-methoxy-3-(tetradecyloxy)phenoxy]-phosphinyl]oxy]phenyl]methyl]-thiazolium, hydroxide inner salt], the “% reversal of LPS induced hypotension (fall in mean arterial pressure)” value (LPS induced hypotension) is reported as 89%, the IC50 (PAF receptor [1]) is reported as 26400 nM and the IC50 (PAF receptor [2]) is reported as 7500 nM. For the same compound, the “24 hour survival, treated” value [3, 5] was 7/30, the “24 hour survival, treated” value ([3]; 30 mg/kg IP 2 hours prior to IP endotoxin, control 4/50) was 12/50 and the “Survival after 24 hrs., treated” value ([3]; Table IX, 10 mg/kg iv prior to iv endotoxin, footnote prints IP, control 0/20) was 4/20. The “PAF induced lethality, % protection” value (PAF induced lethality; I.P. 10 mg/kg) was 12% and the “PAF induced skin lesions, % of control” value (PAF induced skin lesions; [6]) was 75%.
`CCCCCCCCCCCCOc1cc(C(C)(C)C)c(OP(=O)([O-])Oc2cccc(C[n+]3ccsc3)c2)cc1C(C)(C)C` [3-[[3-[[[2,5-Bis(1,1-dimethylethyl)-4-(dodecyloxy)phenoxy]hydroxyphosphinyl]oxy]phenyl]methyl]thiazolium, hydroxide, inner salt] was tested, and the IC50 (PAF receptor [1]) was 1930 nM, the “24 hour survival, treated” value [3, 5] was 4/20 and the “24 hour survival, treated” value ([3]; 20 mg/kg IP 2 hours prior to IP endotoxin) was 6/20. For the same compound, the “24 hour survival, treated” value ([3]; 40 mg/kg IP 2 hours prior to IP endotoxin) was 6/20, the “PAF induced lethality, % protection” value (PAF induced lethality; [6]) was 27% and the IC50 (PAF receptor [4]) was 2.12 nM. For the same compound, the “PAF induced skin lesions, % of control” value (PAF induced skin lesions; footnote d: P.O. 5 mg/kg 4 hours before PAF) was 49%.
`CCCCCCCCCCCCOc1cc(C(C)(C)C)c(OP(=O)([O-])Oc2cccc(C[n+]3cccc4ccccc43)c2)cc1C(C)(C)C` [1-[[3-[[[2,5-Bis(1,1-dimethylethyl)-4-(dodecyloxy)phenoxy] hydroxyphosphinyl]oxy]phenyl]methyl]quinolinium, hydroxide, inner salt] was tested, and the IC50 (PAF receptor [1]) was 47500 nM and the IC50 (PAF receptor [2]) was 1360 nM.
